The values that follow come from patent publication US10307401B2, “Compositions and methods for treatment of prostate cancer” (priority 2016, dated 2019).

Bounds are passed on as bounds.

One data set relates to LNCaP/AR cells. Put plainly: Cytotoxicity / proliferation in LNCaP/AR cells (WST-1, CellTiter-Glo). It is filed as cell-based. Particulars: 72 hours, compared with bicalutamide. From the text:
(§1) The LREX′ and LNCaP/AR cell lines were gifts from Charles Sawyers (Memorial Sloan Kettering) and received in 2014 and 2007, respectively. The VCaP cell line was a gift from Kenneth Pienta (University of Michigan Medical School) and received in 2012. Cells were maintained as previously described (5, 10-13), and were used within 10 passages from thawing. Cells were validated to parental cell lines by STR profile at IDEXXX Bioresearch following experimentation and confirmed to be Mycoplasma free. WST-1 assay (Roche) was used to measure cytotoxicity. The CellTiter-Glo assay was also used in some experiments and is described when used. Long-term toxicity in VCaP cells was assayed by cell counting.

For data set [1], the system named is LREX′ cells. Put plainly: Cytotoxicity / proliferation in LREX′ cells (WST-1). Particulars: with or without 1 nM DHT, 100 nM dex, or both. Type of data set: cell-based.
Text: as §1

A further data set has as its system VCaP cells. Put plainly: Cytotoxicity and long-term viability (cell counting) in VCaP cells. Type of data set: cell-based.
Text: as §1

The subject of data set [2] is KLK3 mRNA in LNCaP/AR cells. Put plainly: Gene expression analysis (qRT-PCR) in LNCaP/AR cells. Type of data set: cell-based. As to conditions: 10 μM; for agonist activity (KLK3 mRNA): androgen-depleted conditions. On the procedure: (§2) LNCaP/AR and LREX′ cells were cultured for 72 hours after plating in phenol-red free RPMI 1640 (10% CT-FBS) in six well plates at 40,000 and 50,000 cells/mL, respectively. LNCaP/AR cells were treated with 10 μM ARE-1, bicalutamide (bic), or enzalutamide (enz, Aurum Pharmatech) for an additional 48, 2, and 2 hours, respectively, prior to treatment with 1 nM DHT or ethanol for 16 hours. LREX′ cells were treated with 10 μM ARE-1 for 16 hours prior to induction with 1 nM DHT or 100 nM dexamethasone (dex) for 8 hours. RNA extraction (RNEasy columns, Qiagen), cDNA generation (Transcriptor First Strand cDNA kit, Roche), and qRT-PCR (SYBR Green Master Mix, Applied Biosystems, ABI7300 instrument) were as described (10-12). Expression was normalized to β-glucuronidase.

The subject of data set [3] is KLK3 and HOMER2 expression in LREX′ cells. Put plainly: Gene expression analysis (qRT-PCR) of genes co-regulated by AR and GR in LREX′ cells. Type of data set: cell-based. On the procedure:
as §2

Data set [4] has as its system LREX′ cells. Put plainly: RNAseq GSEA (Hallmark pathways) in LREX′ cells. Type of data set: cell-based, human. As for the experimental part:
(§3) LREX′ cells were plated at 50,000 cells/mL in 10 cm^2 dishes, treated with or without 10 μM of ARE-1 in fresh media, incubated 16 hours, and induced with 1 nM DHT for 8 hours. Tumor samples were homogenized mechanically. Total RNA was triazol extracted, sequenced (Illumina HiSeq2000), mapped against the human genome (hg19) with Tophat2 using Ensembl GRCh37 gene annotations. Human and mouse reads from tumor samples were parsed with BBSplit and unique reads were mapped. Htseq-count was used for exon alignment and DESeq2 for differential expression. Gene set enrichment analysis (GSEA) was performed on genes with padj<0.05 and fold change≥1.6 for cell samples and padj<0.05 for tumor samples.

Another data set has as its system LNCaP cells. Put plainly: RNAseq GSEA (Hallmark pathways) in LNCaP cells. It is filed as cell-based, human. As to conditions: LNCaP ARE-1/NT.
Data set [5] deals with nascent RNA in LREX′ cells. Put plainly: Nascent RNA measurement (5-EU incorporation) in LREX′ cells. Type of data set: cell-based. As for the experimental part: LREX′ cells were plated at 100,000 cells/mL in 96 well plates in RPMI 1640 (20% FBS and 1 μM enz), adhered for 24 hours, dosed with ARE-1, incubated for 48 hours. The Click-iT® RNA Alexa Fluor® 488 HCS kit was used for dye conjugation and incorporation of 5-ethynyl uridine (5-EU) was measured on a Flexstation 3 plate reader.
LREX′ cells were plated at 100,000 cells/mL in 175 cm^2 flasks, adhered 24 hours, incubated with 10 μM ARE-1 24, 48, and 72 hours, then with 300 μM 5-EU in fresh media. Cells were detached by Accumax or Accutase, and Alexa Fluor® 488 azide dye was conjugated. Cells were passed through 35 μm mesh prior to flow, sorted on a FACSCalibur instrument (Beckman-Dickinson), analyzed using FlowJo.

Data set [6] has as its system VCaP xenografts. Put plainly: VCaP xenografts in intact male SCID mice. Type of data set: in vivo. As for the experimental part: (§4) Animal experiments were performed at Caltech under IACUC approval. VCaP and LREX′ cells were engrafted as 1:1 mixtures of 3×10^6 cells in Matrigel (BD Biosciences) into flanks of intact and castrated male SCID mice (Charles River), respectively. LREX′ engrafted mice received 10 mg/kg enz (oral gavage) daily. Once tumors were 100 mm^3 (0.5*l*w*w), ARE-1 was administered subcutaneously to opposing flanks in 20% DMSO:saline. For circulation studies, four C57BL6/J animals were injected subcutaneously with ARE-1 at 30 mg/kg and blood collected retroorbitally. Plasma concentrations of ARE-1 were analyzed by HPLC, area under the curve (AUC) approximated by the linear trapezoidal method, as described (12).

For another data set, the system named is LREX′ tumors. Put plainly: RNAseq GSEA of LREX′ tumor expression profiles. It is filed as in vivo, mice. Particulars: gene ontology. As for the experimental part:
as §3, §4

The nature of data set [7]: Plasma concentration of ARE-1 in LREX′ tumor bearing SCID mice. It is filed as in vivo. Particulars: 2.5 mg/kg, terminal blood samples, linear trapezoidal method. As for the experimental part:
as §4
(§5) Cell culture experiments represent ≥3 independent biological replicates. Sequencing analyses were duplicates for cell culture and quadruplicates for tumor samples. For xenografts, animals were randomly assigned to groups. For circulation experiments, concentrations of ARE-1 were duplicate measurements. Measurements in cell culture, animal, and immunohistochemistry experiments were assessed by Student's t-test.

A short description of data set [8]: Circulation study of ARE-1 in C57BL6/J mice. It is filed as in vivo. On the procedure: as §4, §5
The subject of data set [9] is hormone sensitive LNCaP xenografts. As to conditions: previously shown, cited from earlier work.
Data set [10] has as its system VCaP xenografts. As to conditions: 10 mg/kg enzalutamide treatment; cited from earlier work.

In the case of `CC(=O)N[C@H](CCNC(=O)c1cc(NC(=O)c2cc(NC(=O)c3cc(NC(=O)c4nccn4C)cn3C)cn2C)cn1C)C(=O)Nc1cn(C)c(C(=O)Nc2cc(C(=O)Nc3cc(C(=O)Nc4cc(C(=O)NCCCN(C)CCCNC(=O)c5cccc(C(=O)O)c5)n(C)c4)n(C)c3)n(C)c2)n1` [ARE-1], the “proliferation of LNCaP/AR cells” value in the data set with LNCaP/AR cells is on record as “reduced proliferation of LNCaP/AR cells more than bicalutamide”. Moreover, in the data set on LREX′ cells [1], the “proliferation of LREX′ cells” value is reported as “reduced proliferation”. Moreover, the “long-term cell viability in VCaP cells” value in the data set with VCaP cells (long-term incubation, cell counting, compared with enzalutamide) was “more potent than enzalutamide and insensitive to GR activation”. For the same molecule, the “proliferation of VCaP cells” value in the data set on VCaP cells (with or without 1 nM DHT, 100 nM dex, or both) is listed as “reduced proliferation”. Besides, in data set [2], the “agonist activity (KLK3 mRNA)” value is recorded as “no agonist activity”. The “baseline expression of KLK3” value in data set [2] (charcoal stripped media) is recorded as “reduced baseline expression of KLK3”. For the same molecule, in [3] (100 nM dex, ARE-1 compared with enzalutamide), the “reduction of dex induced transcription” value is reported as “the opposite was observed with dex induction”. Besides, the “KLK3 and HOMER2 expression” value in data set [3] (10 μM ARE-1) was “represses KLK3 and HOMER2 expression”. In the data set on LREX′ cells [4] (LREX′ DHT + ARE-1/DHT), the “NES HALLMARK APICAL JUNCTION” value is given as −2.198, the “NES HALLMARK DNA REPAIR” value came to 2.055, the “NES HALLMARK INTERFERON GAMMA RESPONSE” value stood at 2.028 and the “NES HALLMARK MITOTIC SPINDLE” value is given as −2.302. For the same molecule, in the data set with LREX′ cells [4] (LREX′ DHT + ARE-1/DHT), the “NES HALLMARK MYC TARGETS V1” value is listed as 2.006, the “NES HALLMARK OXIDATIVE PHOSPHORYLATION” value was 2.738, the “NES HALLMARK PROTEIN SECRETION” value is listed as −2.402 and the “NES HALLMARK UV RESPONSE UP” value was determined as 2.173. Also, in the data set on LNCaP cells, the “NES HALLMARK APOPTOSIS” value is reported as 2.323, the “NES HALLMARK INTERFERON GAMMA RESPONSE” value came to 3.06, the “NES HALLMARK P53 PATHWAY” value came to 3.749 and the “NES HALLMARK TNFA SIGNALING VIA NFKB” value was 3.248. The “nascent RNA (5-EU incorporation)” value in data set [5] was “reduced nascent RNA in LREX′ cells”. For the same molecule, the “toxicity (animal weights)” value with VCaP xenografts [6] (VCaP tumor bearing animals treated with ARE-1) is listed as “without significant toxicity”. The “reduction of tumor growth compared to vehicle” value in the data set with VCaP xenografts [6] (VCaP xenografts, 5 mg/kg ARE-1 subcutaneously three times per week) is recorded as 70%. In the data set on LREX′ tumors, the “Nes ADENYL NUCLEOTIDE BINDING” value is recorded as −4.22, the “Nes CELL PROJECTION ORGANIZATION” value was −3.813, the “Nes CELLULAR AMIDE METABOLIC PROCESS” value is 4.725 and the “Nes CHROMATIN BINDING” value was −3.786. Also, in the data set with LREX′ tumors, the “Nes DOUBLE STRANDED DNA BINDING” value was −4.074, the “Nes MACROMOLECULAR COMPLEX BINDING” value is on record as −3.726, the “Nes MITOCHONDRIAL ENVELOPE” value is 5.17 and the “Nes MITOCHONDRIAL PART” value came to 5.946. Also, in the data set on LREX′ tumors, the “Nes MITOCHONDRION” value was determined as 6.585, the “Nes MITOCHONDRION ORGANIZATION” value is recorded as 4.686, the “Nes NUCLEIC ACID BINDING TRANSCRIPTION FACTOR ACTIVITY” value is −5.598 and the “Nes ORGANELLE INNER MEMBRANE” value came to 4.922. In addition, in the data set on LREX′ tumors, the “Nes ORGANONITROGEN COMPOUND BIOSYNTHETIC PROCESS” value was 4.815, the “Nes ORGANONITROGEN COMPOUND METABOLIC PROCESS” value was 5.958, the “Nes REGULATION OF TRANSCRIPTION FROM RNA POLYMERASE II PROMOTER” value is listed as −4.438 and the “Nes REGULATORY REGION NUCLEIC ACID BINDING” value is given as −4.775. In the data set with LREX′ tumors, the “Nes RIBOSOME” value came out at 4.779, the “Nes SEQUENCE SPECIFIC DNA BINDING” value is given as −4.99, the “Nes STRUCTURAL CONSTITUENT OF RIBOSOME” value was determined as 4.741 and the “Nes ZINC ION BINDING” value is given as −3.923. For the same molecule, the “AUC (plasma)” value in data set [7] was 25.9 µg·h/mL. Besides, the “AUC (plasma)” value in data set [8] (30 mg/kg subcutaneously, C57BL6/J mice, linear trapezoidal method) is 189.9 µg·h/mL. In data set [8] (30 mg/kg, mice), the “time to recovery from weight loss” value is at most 5 days, the “visible signs of distress” value was “without visible signs of distress” and the weight loss turned out to be 6%. The host toxicity entry in data set [9] (LNCaP xenografts) is listed as “minimal host toxicity”. The “efficacy against LNCaP xenografts” value in [9] is “effective against hormone sensitive LNCaP xenografts”.
In the case of `CNC(=O)c1ccc(N2C(=S)N(c3ccc(C#N)c(C(F)(F)F)c3)C(=O)C2(C)C)cc1F` [enzalutamide, reference compound], the “agonist activity (KLK3 mRNA)” value in data set [2] is listed as “no agonist activity”. Besides, the “reduction of DHT induced transcription” value in [3] (1 nM DHT, enzalutamide compared with ARE-1) was “more potent than ARE-1 in reducing DHT induced transcription”. Besides, the “response of VCaP xenografts” value with VCaP xenografts [10] is “modest response”.
As for `C[C@]12CCC(=O)C[C@@H]1CC[C@@H]1[C@@H]2CC[C@]2(C)[C@@H](O)CC[C@@H]12` [DHT, dihydrotestosterone, reference compound], in the data set with LREX′ cells [4] (LREX′ DHT/NT), the “NES HALLMARK ANDROGEN RESPONSE” value was determined as 5.031, the “NES HALLMARK MYC TARGETS V1” value is listed as −1.861, the “NES HALLMARK MYC TARGETS V2” value is on record as −1.81 and the “NES HALLMARK OXIDATIVE PHOSPHORYLATION” value was −2.126. For the same molecule, in the data set on LREX′ cells [4] (LREX′ DHT/NT), the “NES HALLMARK PROTEIN SECRETION” value is on record as 2.849, the “NES HALLMARK TNFA SIGNALING VIA NFKB” value is 2.751 and the “NES HALLMARK UV RESPONSE DOWN” value came out at 2.496.
